Consider one compound from patent US10744214B2, “Method of diagnosing and/or monitoring therapy of atherosclerosis” (STC.UNM, priority 2015, dated 2020).

For this test, the system named is neutrophils and PBMCs. Kind of test: Radiolabeled DANBIRT uptake in isolated blood components after ozone exposure. The following applies: rat blood collected 24 hours post-exposure, 1 hour incubation. The test is classed as cell-based, rats. As for the experimental part: • 6 week old ApoE KO C57 black male • SPECT imaging 3 hrs and 24 hrs post tail vein Injection of ˜700 uCi (˜25.9 Mbq) of ^111In-DANBIRT • Autoradiography was performed 24 hrs PI of ^111In-DANBIRT after the last imaging time point, • We focused on 3 areas for our region of interest analysis: Aortic arch, carotids and thymus: normalized to muscle. • Whole blood incubation with ^68Ga-DANBIRT and subsequent neutrophil and PBMC isolation were performed from rat blood from animals exposed to filtered air and ozone. • 2 groups: Filtered air (n=3) and ozone (n=3) • Whole blood was collected 24 hrs post exposure • Whole Blood Separation was performed after incubation with ^68Ga-DANBIRT, obtaining 4 samples: serum, red blood cells, neutrophils and peripheral blood mononucleated cells. Staining was performed for specific morphology interpretation and smear cell line purity assessment. Results
Rats were exposed to either filtered air (FA) or ozone (1.0 ppm) for 4 hours using an OREC silent are discharge ozone generator (Osmonics, Phoenix, Ariz.); ozone concentrations were continuously monitored over the course of 4 hours. Exposures took place in a chamber without bedding to minimize ozone scrubbing and to ensure consistent nasal exposures. Whole blood was collected 24 hours post-exposure. Histopaque two-step gradient (Sigma Aldrich, 10771) neutrophil isolation protocol was performed following manufacturer's methods; modified protocol was included for PBMC isolation. Hetastarch at 5% (B. Braun, L6511) was added to whole blood before running isolation protocols. Cell samples were washed and suspended in 1% Gelatin in PBS at a pH of 7.2. Final volumes of neutrophil and PBMC samples were increased to 1 mL. Final samples were identified as serum, RBC, neutrophils and PBMCs and incubated for 1 hour with [^68Ga] Ga-DANBIRT (specific activity of 625 mCi/pM). […] Cell morphology, differentials and sample purity were assessed using a light microscope at 40× objective (Olympus BX51).

“Also recorded” adds a separate entry of the source.

On to `C[C@]1(Cc2ccc(Br)cc2)C(=O)N(c2cc(Cl)cc(Cl)c2)C(=O)N1CCCCNC(=O)CN1CCN2CCN3CCN(CC1)CC(=O)[O][68Ga]([O]C(=O)C2)[O]C(=O)C3` [[^68Ga] Ga-DANBIRT], for which the “uptake in PBMCs post-ozone exposure” value is on record as “decreased uptake; also recorded: decrease” and the “uptake in serum post-ozone exposure” value is on record as “decrease”. Further, where the note is “p=0.008”, the “uptake in neutrophils post 4-hour ozone exposure vs filtered air” value was “increased uptake”.
